According to US6770673B1, “Therapeutic uses of arglabin in combination with other chemotherapy agents” (priority 1997, dated 2004):

Key:
[1] = test system: Worker's carcinosarcoma; test: Inhibition of tumor growth in implanted tumors; assay type: in vivo, mice and rats
[2] = test system: Sarcoma-45; test: Inhibition of tumor growth in implanted tumors; assay type: in vivo, rats
[3] = test system: Geren's carcinosarcoma; test: Inhibition of tumor growth in implanted tumors; assay type: in vivo, mice and rats
[4] = test system: Pliss lymphosarcoma; test: Inhibition of tumor growth in implanted tumors; assay type: in vivo, rats
[5] = test system: Alveolar Cancer of the liver; test: Inhibition of tumor growth in implanted tumors; assay type: in vivo, mice and rats
[6] = test system: Leucemia P-388; test: Implanted leukemia, inhibition / survival; assay type: in vivo, mice and rats; conditions: for Inhibition of Tumour Growth, % - Leucemia P-388 PALT: dose 50 mg/kg
[7] = test system: Sarcoma-45 resistant to 5-fluorouracil; test: Inhibition of growth of resistant tumour strains; assay type: in vivo, rats
[8] = test system: Pliss Lymphosarcoma resistant to prospidine; test: Inhibition of growth of resistant tumour strains; duration of life and metastasis; assay type: in vivo, rats
[9] = test system: M-1 Sarcoma; test: Inhibition of tumor growth in implanted tumors; assay type: in vivo, mice and rats; conditions: dose 30 mg/kg
[10] = test system: Sarcoma-45 resistant to prospidine; test: Inhibition of growth of resistant tumour strains; assay type: in vivo, rats; conditions: dose 30 mg/kg
[11] = test system: Pliss Lymphosarcoma resistant to leucoeffdine; test: Inhibition of growth of resistant tumour strains; tumor disappearance; assay type: in vivo, rats; conditions: dose 30 mg/kg
[12] = test system: Sarcoma-45 resistant to rubidomycin; test: Inhibition of growth of resistant tumour strains; assay type: in vivo, rats; conditions: dose 30 mg/kg
[13] = test system: Breast Cancer RMC-1; test: Inhibition of tumor growth in implanted tumors; assay type: in vivo, mice and rats; conditions: dose 30 mg/kg
[14] = test system: Pliss Lymphosarcoma resistant to rubidomycin; test: Inhibition of growth of resistant tumour strains; assay type: in vivo, rats; conditions: dose 30 mg/kg
[15] = test system: PC-1; test: Inhibition of tumor growth in implanted tumors; assay type: in vivo, mice and rats; conditions: dose 30 mg/kg
[16] = test system: L-1210; test: Implanted leukemia, survival; assay type: in vivo, mice and rats; conditions: dose 30 mg/kg
[17] = test system: Sarcoma-45 resistant to sarcolysin; test: Inhibition of growth of resistant tumour strains; assay type: in vivo, rats; conditions: dose 30 mg/kg
[18] = test system: immune system; test: Indices of patients' immunity, rozette forming and phagocytosis methods (Table X); assay type: in vivo, human
Experimental: The indices of immune system were determined using rozette forming and phagocytosis methods. […] Eleven indices of cellular and humoral immunity were measured from each patient in order to evaluate immune status. The following indices were determined on 0.05 ml of peripheral blood: absolute and relative amount of T- and B-lymphocytes, amount of non-differentiated “zero” cells, adhesion and phagocyte activity of neutrophils, hemogram, level of serum immunoglobulins. Indices were determined before treatment, on days 2, 5 and 14 of treatment, and after treatment.
Mean values of immunological indices were evaluated with regression analysis. Functional conditions of the immune system were estimated using integral indices such as a mean intensity (correlation) expressed in relative units.

With `C=C1C(=O)OC2C1CCC(C)(Cl)C1(O)CC(Cl)C(C)(O)C21` (stereo not shown) [Dichlordihydroxyarglabin (3)] as the compound, how does the “Inhibition of Tumour Growth, % - Worker's carcinosarcoma” value ([1]; dose 50 mg/kg) read?
Its value is 63.2%.

And the “Inhibition of Tumour Growth, % - Sarcoma-45” value (from here on “Inhibition … % - Sarcoma-45”) ([2]; dose 50 mg/kg)?
Its value is 70.9%.

And the “Inhibition of Tumour Growth, % - Geren's carcinosarcoma” value ([3]; dose 50 mg/kg)?
Its value is 71.4%.

And the “Inhibition of Tumour Growth, % - Pliss lymphosarcoma” value (from here on “Inhibition … % - Pliss lymphosarcoma”) ([4]; dose 50 mg/kg)?
The value was 29.0%.

What about the “Inhibition of Tumour Growth, % - Alveolar Cancer of the liver” value ([5]; dose 50 mg/kg) of the same compound?
Its value is 51.0%.

And the “Inhibition of Tumour Growth, % - Leucemia P-388 PALT” value (shortened to “Inhibition … % - Leucemia P-388 PALT”) [6]?
The value was 92.1%.

What about the “Inhibition of Tumour Strains Growth, % - Resistant Forms - Sarcoma-45 to 5-fluorouracil” value ([7]; dose 50 mg/kg) of the same compound?
Its value is 70.6%.

With `CN(C)CC1C(=O)OC2C1CCC1(C)OC13CC1OC1(C)C23.Cl` (stereo not shown) [dimethylaminoepoxyarglabin hydrochloride] as the compound, how does the “Inhibition of Tumour Growth, % - Worker's carcinosarcoma” value ([1]; dose 50 mg/kg) read?
The value was 51.4%.

And the “Inhibition … % - Sarcoma-45” value ([2]; dose 50 mg/kg)?
Its value is 32.4%.

What about the “Inhibition of Tumour Growth, % - Geren's carcinosarcoma” value ([3]; dose 50 mg/kg) of the same compound?
Its value is 15.6%.

What about the “Inhibition … % - Pliss lymphosarcoma” value ([4]; dose 50 mg/kg) of the same compound?
Its value is 47.0%.

What about the “Inhibition of Tumour Growth, % - Alveolar Cancer of the liver” value ([5]; dose 50 mg/kg) of the same compound?
Its value is 29.1%.

And the “Inhibition … % - Leucemia P-388 PALT” value [6]?
The value was 31.2%.

What about the “Inhibition of Tumour Strains Growth, % - Resistant Forms - Sarcoma-45 to 5-fluorouracil” value ([7]; dose 50 mg/kg) of the same compound?
Its value is 13.2%.

Which results are given for `C=C1C(=O)OC2C1CCC(C)(O)C1C3OC3C(C)(O)C21` (stereo not drawn) [Anobin (19), 2α,3α-epoxy-4α,10α-dioxy-5,7α(H), 60β(H)-guai-11(13)-en-6,12-olide]?
Inhibition of Tumour Growth, % - Geren's carcinosarcoma ([3]; dose 20-30 mg/kg): 85%; Inhibition of Tumour Strains Growth, % - Resistant Forms - Pliss Lymphosarcoma to prospidine ([8]; dose 20-30 mg/kg): 95%; Inhibition of Tumour Growth, % - Pliss lymphosarcoma ([4]; dose 20-30 mg/kg): 60.0%; Inhibition of Tumour Strains Growth, % - Resistant Forms - Sarcoma-45 to 5-fluorouracil ([7]; dose 20-30 mg/kg): 13.2%

For `C=C1C(=O)OC2C1CCC1(C)OC13CC(Br)C(C)(Br)C23` (stereo not shown) [Dibromoarglabin (5), 3,4 Dibromoarglabin], which “Inhibition of Tumour Growth, % - Worker's carcinosarcoma” value ([1]; dose 50 mg/kg) is on record?
The value was 17.1%.

What about the “Inhibition … % - Sarcoma-45” value ([2]; dose 50 mg/kg) of the same compound?
Its value is 74.2%.

What about the “Inhibition of Tumour Growth, % - Geren's carcinosarcoma” value ([3]; dose 50 mg/kg) of the same compound?
Its value is 90.0%.

What about the “Inhibition … % - Pliss lymphosarcoma” value ([4]; dose 50 mg/kg) of the same compound?
Its value is 51.0%.

What about the “Inhibition of Tumour Growth, % - Alveolar Cancer of the liver” value ([5]; dose 50 mg/kg) of the same compound?
Its value is 69.0%.

And the “Inhibition … % - Leucemia P-388 PALT” value [6]?
Its value is 46.9%.

What about the “Inhibition of Tumour Strains Growth, % - Resistant Forms - Sarcoma-45 to 5-fluorouracil” value ([7]; dose 50 mg/kg) of the same compound?
The value was 46.3%.

`C=C1C(=O)OC2C1CCC1(C)OC13CC1OC1(C)C23` (stereo not shown) [Epoxyarglabin (2), 1(10), 3(4)-diepoxy-guai-11(13)-en-6,12-olid] was tested. Which “Inhibition of Tumour Growth, % - Worker's carcinosarcoma” value ([1]; dose 30 mg/kg) did it give?
Its value is 36.4%.

And the “Inhibition … % - Sarcoma-45” value ([2]; dose 30 mg/kg)?
The value was 88.8%.

And the “Inhibition of Tumour Growth, % - M-1 Sarcoma” value [9]?
Its value is 78.4%.

And the “Inhibition of Tumour Strains Growth, % - Resistant Forms - Sarcoma-45 to prospidine” value [10]?
The value was 70.4%.

And the “Inhibition of Tumour Strains Growth, % - Resistant Forms - Pliss Lymphosarcoma to leucoeffdine” value [11]?
The value was 79.8%.

What about the “Inhibition of Tumour Strains Growth, % - Resistant Forms - Sarcoma-45 to rubidomycin” value [12] of the same compound?
Its value is 78.6%.

What about the “Inhibition of Tumour Growth, % - Breast Cancer RMC-1” value [13] of the same compound?
The value was 59.6%.

And the “Inhibition … % - Pliss lymphosarcoma” value ([4]; dose 30 mg/kg)?
The value was 72.1%.

What about the “Inhibition of Tumour Strains Growth, % - Resistant Forms - Pliss Lymphosarcoma to rubidomycin” value [14] of the same compound?
Its value is 78.0%.

And the “Inhibition of Tumour Growth, % - Alveolar Cancer of the liver” value ([5]; dose 30 mg/kg)?
The value was 70.4%.

What about the “Inhibition of Tumour Strains Growth, % - Resistant Forms - Sarcoma-45 to 5-fluorouracil” value ([7]; dose 30 mg/kg) of the same compound?
The value was 66.0%.

With `C=C1C(=O)O[C@@H]2[C@H]3C(C)=CC[C@@]34O[C@@]4(C)CC[C@@H]12` [Arglabin (1), 1(R), 10(S)-epoxy-5(S), 6(S), 7(S)-guaia-3(4), 11(13)-diene-6,12-olide] as the compound, how does the “Inhibition of Tumour Growth, % - Worker's carcinosarcoma” value ([1]; dose 30 mg/kg) read?
Its value is 41.1%.

What about the “Inhibition … % - Sarcoma-45” value ([2]; dose 30 mg/kg) of the same compound?
Its value is 23.0%.

What about the “Inhibition of Tumour Growth, % - Geren's carcinosarcoma” value ([3]; dose 30 mg/kg) of the same compound?
Its value is 48.0%.

What about the “Inhibition of Tumour Growth, % - M-1 Sarcoma” value [9] of the same compound?
Its value is 55.6%.

And the “Inhibition of Tumour Growth, % - PC-1” value [15]?
Its value is 32.1%.

What about the “L-1210 - increase in survival” value [16] of the same compound?
Its value is “+34.1%”.

And the “Inhibition of Tumour Strains Growth, % - Resistant Forms - Pliss Lymphosarcoma to prospidine” value ([8]; dose 30 mg/kg)?
The value was 31.0%.

And the “Inhibition … % - Pliss lymphosarcoma” value ([4]; dose 30 mg/kg)?
Its value is 57.6%.

What about the “Inhibition of Tumour Strains Growth, % - Resistant Forms - Pliss Lymphosarcoma to rubidomycin” value [14] of the same compound?
Its value is 44.1%.

And the “Inhibition of Tumour Growth, % - Alveolar Cancer of the liver” value ([5]; dose 30 mg/kg)?
The value was 32.1%.

And the “Inhibition of Tumour Strains Growth, % - Resistant Forms - Sarcoma-45 to sarcolysin” value [17]?
The value was 59.7%.

And the “Adhesion, N/ph” value ([18]; human, in vivo)?
Its value is 42.40 ± 1.72.

And the “Non differentiated lymphocytes, %” value ([18]; human, in vivo)?
Its value is 26.00 ± 2.21%.

And the “T-lymphocytes, %” value ([18]; human, in vivo)?
Its value is 52.00 ± 1.42%.

And the Eosinophil ([18]; patients, hemogram, after treatment (before treatment 2.72 ± 0.71))?
The Eosinophil was 3.35 ± 1.30.

What about the “Neutrophils, %” value ([18]; patients, hemogram, after treatment (before treatment 4.72 ± 0.91)) of the same compound?
The value was 5.45 ± 0.79%.

What about the Monocytes ([18]; patients, hemogram, after treatment (before treatment 5.28 ± 2.48)) of the same compound?
Its Monocytes is 4.45 ± 0.44.

And the Lymphocytes ([18]; patients, hemogram, after treatment (before treatment 25.52 ± 2.02))?
Its Lymphocytes is 23.15 ± 1.7.

And the Segmentation nucleus ([18]; patients, hemogram, after treatment (before treatment 61.68 ± 45.0))?
The Segmentation nucleus was 63.05 ± 1.79.

And the “B-lymphocytes, absolute” value ([18]; patients, peripheral blood, after treatment (before treatment 0.29 ± 0.05))?
The value was 0.45 ± 0.07.

What about the “T-lymphocytes, absolute” value ([18]; patients, peripheral blood, after treatment (before treatment 0.72 ± 0.08)) of the same compound?
Its value is 1.14 ± 0.17.

What about the “D-phag, abs” value ([18]; patients, peripheral blood, after treatment (before treatment 1.69 ± 0.26)) of the same compound?
Its value is 2.32 ± 0.19.

What about the “Leukocytes, 10^9/l” value ([18]; patients, peripheral blood, after treatment (before treatment 5.97 ± 0.60)) of the same compound?
Its value is 9.14 ± 0.61 10^9/l.

And the “T suppressor, %” value ([18]; patients, peripheral blood, after treatment (before treatment 10.48 ± 1.60))?
The value was 10.50 ± 0.95%.

What about the “B-lymphocytes, %” value ([18]; patients, peripheral blood, after treatment (before treatment 19.12 ± 1.02)) of the same compound?
The value was 18.50 ± 10.0%.

And the “T helper cells, %” value ([18]; patients, peripheral blood, after treatment (before treatment 39.12 ± 1.25))?
Its value is 45.30 ± 1.26%.

And the “D-phag., %” value ([18]; patients, peripheral blood, after treatment (before treatment 41.36 ± 0.95))?
The value was 48.1 ± 0.93%.

And the “Immunoglobulins M” value ([18]; patients, serum, after treatment (before treatment 1.36 ± 0.03))?
The value was 1.53 ± 0.03 g/L.

And the “Immunoglobulins A” value ([18]; patients, serum, after treatment (before treatment 1.48 ± 0.02))?
Its value is 1.97 ± 0.08 g/L.

What about the “Immunoglobulins G” value ([18]; patients, serum, after treatment (before treatment 14.33 ± 0.43)) of the same compound?
The value was 17.91 ± 0.41 g/L.

What about the “Leucemia P-388 PALT - increase in survival” value ([6]; dose 30 mg/kg) of the same compound?
Its value is “+43.0%”.
